Structures can show the parent of a compound that is named as a salt. Where two headings read alike, the source gives them in different places.
Biological target: T1, hNaV1.7 (Homo sapiens, UniProt Q15858)
T1 construct: expressed in transfected cells; host or cells: HEK293
Experiment: QPatch NaV1.7 assay (whole-cell patch clamp, QPatch16x)
Format: cell-based
Settings: HEK293-hNaV1.7 cells
How it was run: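 HEK293 cells expressing hNaV1.7 recorded by automated whole-cell patch clamp (CsF internal, pH 7.3). Peak currents from 20 ms steps to 0 mV measured at holding potentials of −90 mV and V1/2 SSI; four-point cumulative concentrations, 120 s each, Hill fits gave pIC50 at each potential.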

[1] = holding voltage V1/2 SSI (half of channels inactivated), read-out: QP Nav1.7 SSI vhalf pIC50 (converted)
[2] = holding voltage −90 mV (most channels closed), read-out: QP Nav1.7 −90 mV pIC50 (converted)

T1 sequence (Q15858 whole entry): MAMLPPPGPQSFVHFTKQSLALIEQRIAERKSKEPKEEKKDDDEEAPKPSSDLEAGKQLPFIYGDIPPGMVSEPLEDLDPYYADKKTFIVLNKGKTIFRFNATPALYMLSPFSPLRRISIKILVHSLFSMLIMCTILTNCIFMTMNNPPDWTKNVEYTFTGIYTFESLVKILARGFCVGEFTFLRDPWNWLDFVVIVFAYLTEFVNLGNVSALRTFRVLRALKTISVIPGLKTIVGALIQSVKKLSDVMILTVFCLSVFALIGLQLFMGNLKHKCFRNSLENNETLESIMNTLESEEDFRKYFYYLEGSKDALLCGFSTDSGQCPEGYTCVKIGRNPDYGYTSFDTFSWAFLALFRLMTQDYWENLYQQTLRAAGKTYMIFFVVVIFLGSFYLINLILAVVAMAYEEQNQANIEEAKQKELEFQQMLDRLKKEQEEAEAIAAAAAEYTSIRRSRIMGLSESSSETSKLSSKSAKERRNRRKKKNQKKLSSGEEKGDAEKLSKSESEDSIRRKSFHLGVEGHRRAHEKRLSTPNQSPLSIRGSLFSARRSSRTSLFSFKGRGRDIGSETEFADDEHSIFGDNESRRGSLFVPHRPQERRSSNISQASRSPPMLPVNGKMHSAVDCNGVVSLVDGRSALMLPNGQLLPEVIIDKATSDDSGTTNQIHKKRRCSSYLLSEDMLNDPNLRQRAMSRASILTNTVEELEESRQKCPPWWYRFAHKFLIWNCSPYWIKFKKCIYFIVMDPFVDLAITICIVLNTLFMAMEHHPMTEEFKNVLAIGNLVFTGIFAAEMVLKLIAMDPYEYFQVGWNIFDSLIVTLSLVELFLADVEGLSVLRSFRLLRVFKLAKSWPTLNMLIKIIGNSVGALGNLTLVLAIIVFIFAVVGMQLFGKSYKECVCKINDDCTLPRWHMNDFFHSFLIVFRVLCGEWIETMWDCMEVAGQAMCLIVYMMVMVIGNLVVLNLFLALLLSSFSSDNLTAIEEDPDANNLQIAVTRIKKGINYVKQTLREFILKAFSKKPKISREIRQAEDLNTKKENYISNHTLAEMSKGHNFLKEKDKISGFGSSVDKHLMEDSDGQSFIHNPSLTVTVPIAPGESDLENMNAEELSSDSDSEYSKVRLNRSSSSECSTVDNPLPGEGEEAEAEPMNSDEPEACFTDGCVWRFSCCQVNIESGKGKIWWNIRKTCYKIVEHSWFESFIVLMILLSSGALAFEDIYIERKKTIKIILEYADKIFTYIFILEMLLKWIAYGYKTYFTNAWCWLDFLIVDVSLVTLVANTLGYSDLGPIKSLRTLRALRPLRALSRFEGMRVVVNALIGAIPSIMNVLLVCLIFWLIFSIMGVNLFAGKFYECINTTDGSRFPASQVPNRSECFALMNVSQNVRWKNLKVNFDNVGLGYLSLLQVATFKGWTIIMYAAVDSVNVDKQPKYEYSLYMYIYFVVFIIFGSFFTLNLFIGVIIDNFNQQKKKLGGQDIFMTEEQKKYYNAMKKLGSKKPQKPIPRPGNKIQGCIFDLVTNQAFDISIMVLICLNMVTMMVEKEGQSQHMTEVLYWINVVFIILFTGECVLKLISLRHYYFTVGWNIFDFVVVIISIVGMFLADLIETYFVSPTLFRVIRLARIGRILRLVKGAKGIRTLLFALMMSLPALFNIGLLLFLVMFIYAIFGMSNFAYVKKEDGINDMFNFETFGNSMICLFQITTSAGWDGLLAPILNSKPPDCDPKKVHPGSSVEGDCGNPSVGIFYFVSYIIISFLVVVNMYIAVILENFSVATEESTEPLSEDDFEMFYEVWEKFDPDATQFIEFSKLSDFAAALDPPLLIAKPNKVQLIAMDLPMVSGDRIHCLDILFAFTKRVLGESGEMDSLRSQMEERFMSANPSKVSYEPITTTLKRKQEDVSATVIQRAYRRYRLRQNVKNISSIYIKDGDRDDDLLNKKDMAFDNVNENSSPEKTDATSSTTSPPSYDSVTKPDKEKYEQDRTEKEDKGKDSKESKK

SMILES	IC50 [1]	IC50 [2]
O=C1NCCC[C@@]12CC[C@@H](c1cc(-c3ccc(F)cc3)ccn1)N2 [Example 110, (2S,5R)-2-[4-(4-Fluoro-phenyl)-pyridin-2-yl]-1,7-diaza-spiro[4.5]decan-6-one hydrochloride]	10 µM	251 µM
O=C1NCCC[C@@]12CC[C@H](c1cc(-c3ccc(F)cc3)ccn1)N2 [Example 111, (2R,5R)-2-[4-(4-Fluoro-phenyl)-pyridin-2-yl]-1,7-diaza-spiro[4.5]decan-6-one hydrochloride]	63.1 µM	200 µM
O=C1NCCC[C@]12CC[C@H](c1cc(-c3ccc(F)cc3)ccn1)N2 [Example 112, (2R,5S)-2-[4-(4-Fluoro-phenyl)-pyridin-2-yl]-1,7-diaza-spiro[4.5]decan-6-one hydrochloride]	3.98 µM	39.8 µM
O=C1NCCC[C@]12CC[C@@H](c1cc(-c3ccc(F)cc3)ccn1)N2 [Example 113, (2S,5S)-2-[4-(4-Fluoro-phenyl)-pyridin-2-yl]-1,7-diaza-spiro[4.5]decan-6-one hydrochloride]	50.1 µM	200 µM
CCOc1ccc(F)c(-c2cc(C)nc([C@@H]3CC[C@]4(CCN(C)C4=O)N3)c2)c1 [Example 120, (2S,5R)-2-[4-(5-Ethoxy-2-fluoro-phenyl)-6-methyl-pyridin-2-yl]-7-methyl-1,7-diaza-spiro[4.4]nonan-6-one hydrochloride]	0.794 µM	20 µM
CCOc1ccc(F)c(-c2cc(C)nc([C@H]3CC[C@]4(CCN(C)C4=O)N3)c2)c1 [Example 121, (2R,5R)-2-[4-(5-Ethoxy-2-fluoro-phenyl)-6-methyl-pyridin-2-yl]-7-methyl-1,7-diaza-spiro[4.4]nonan-6-one hydrochloride]	0.631 µM	12.6 µM
COc1cc(C(F)(F)F)ccc1-c1cc(C)nc([C@@H]2CC[C@@]3(CCN(C)C3=O)N2)c1 [Example 122, (2S,5S)-2-[4-[2-Methoxy-4-(trifluoromethyl)phenyl]-6-methyl-2-pyridyl]-7-methyl-1,7-diazaspiro[4.4]nonan-6-one hydrochloride]	3.16 µM	7.94 µM
CCOc1cc(-c2cc(C)nc([C@@H]3CC[C@]4(CCN(C)C4=O)N3)c2)ccc1F [Example 123, (2S,5R)-2-[4-(3-Ethoxy-4-fluoro-phenyl)-6-methyl-2-pyridyl]-7-methyl-1,7-diazaspiro[4.4]nonan-6-one hydrochloride]	39.8 µM	251 µM
CCOc1cc(-c2cc(C)nc([C@H]3CC[C@]4(CCN(C)C4=O)N3)c2)ccc1F [Example 124, (2R,5R)-2-[4-(3-Ethoxy-4-fluoro-phenyl)-6-methyl-2-pyridyl]-7-methyl-1,7-diazaspio[4.4]nonan-6-one hydrochloride]	7.94 µM	126 µM
CCOc1cc(-c2cc(C)nc([C@H]3CC[C@@]4(CCN(C)C4=O)N3)c2)ccc1F [Example 125, hydrochloride]	25.1 µM	158 µM
CCOc1cc(-c2cc(C)nc([C@@H]3CC[C@@]4(CCN(C)C4=O)N3)c2)ccc1F [Example 126, (2S,5S)-2-[4-(3-Ethoxy-4-fluoro-phenyl)-6-methyl-2-pyridyl]-7-methyl-1,7-diazaspiro[4.4]nonan-6-one hydrochloride]	20 µM	316 µM
COc1cc(C(F)(F)F)ccc1-c1cc([C@@H]2CC[C@]3(CCN(C)C3=O)N2)ncc1C [Example 129, (2S,5R)-2-[4-[2-Methoxy-4-(trifluoromethyl)phenyl]-5-methyl-2-pyridyl]-7-methyl-1,7-diazaspiro[4.4]nonan-6-one hydrochloride]	20 µM	200 µM
COc1cc(C(F)(F)F)ccc1-c1cc([C@H]2CC[C@]3(CCN(C)C3=O)N2)ncc1C [Example 130, (2R,5R)-2-[4-[2-Methoxy-4-(trifluoromethyl)phenyl]-5-methyl-2-pyridyl]-7-methyl-1,7-diazaspiro[4.4]nonan-6-one hydrochloride]	7.94 µM	158 µM
COc1cc(C(F)(F)F)ccc1-c1cc([C@H]2CC[C@@]3(CCN(C)C3=O)N2)ncc1C [Example 131, (2R,5S)-2-[4-[2-Methoxy-4-(trifluoromethyl)phenyl]-5-methyl-2-pyridyl]-7-methyl-1,7-diazaspiro[4.4]nonan-6-one hydrochloride]	2 µM	100 µM
COc1cc(C(F)(F)F)ccc1-c1cc([C@@H]2CC[C@@]3(CCN(C)C3=O)N2)ncc1C [Example 132, (2S,5S)-2-[4-[2-Methoxy-4-(trifluoromethyl)phenyl]-5-methyl-2-pyridyl]-7-methyl-1,7-diazaspiro[4.4]nonan-6-one hydrochloride]	39.8 µM	251 µM

Now from value to compound:

IC50 [1]	IC50 [2]	SMILES
2 µM	25.1 µM	CCOc1ccc(F)c(-c2cc(C)nc([C@@H]3CC[C@]4(CCNC4=O)N3)c2)c1 [Example 102, (2S,5R)-2-[4-(5-Ethoxy-2-fluoro-phenyl)-6-methyl-2-pyridyl]-1,7-diazaspiro[4.4]nonan-6-one hydrochloride]
0.126 µM	2.51 µM	CCOc1ccc(F)c(-c2cc(C)nc([C@H]3CC[C@]4(CCNC4=O)N3)c2)c1 [Example 103, (2R,5R)-2-[4-(5-Ethoxy-2-fluoro-phenyl)-6-methyl-2-pyridyl]-1,7-diazaspiro[4.4]nonan-6-one hydrochloride]
0.158 µM	1.58 µM	CCOc1ccc(F)c(-c2cc(C)nc([C@H]3CC[C@@]4(CCNC4=O)N3)c2)c1 [Example 104, (2R,5S)-2-[4-(5-Ethoxy-2-fluoro-phenyl)-6-methyl-2-pyridyl]-1,7-diazaspiro[4.4]nonan-6-one hydrochloride]
2 µM	25.1 µM	CCOc1ccc(F)c(-c2cc(C)nc([C@@H]3CC[C@@]4(CCNC4=O)N3)c2)c1 [Example 105, (2S,5S)-2-[4-(5-Ethoxy-2-fluoro-phenyl)-6-methyl-2-pyridyl]-1,7-diazaspiro[4.4]nonan-6-one hydrochloride]
2 µM	5.01 µM	CCOc1ccc(F)c(-c2ccnc([C@@H]3CC[C@]4(CCCNC4=O)N3)c2)c1 [Example 106, (2S,5S)-2-[4-(5-Ethoxy-2-fluoro-phenyl)-pyridin-2-yl]-1,7-diaza-spiro[4.5]decan-6-one hydrochloride]
0.2 µM	1.58 µM	CCOc1ccc(F)c(-c2ccnc([C@H]3CC[C@]4(CCCNC4=O)N3)c2)c1 [Example 107, (2R,5S)-2-[4-(5-Ethoxy-2-fluoro-phenyl)-pyridin-2-yl]-1,7-diaza-spiro[4.5]decan-6-one hydrochloride]
0.0631 µM	1.26 µM	CCOc1ccc(F)c(-c2ccnc([C@H]3CC[C@@]4(CCCNC4=O)N3)c2)c1 [Example 108, (2R,5R)-2-[4-(5-Ethoxy-2-fluoro-phenyl)-pyridin-2-yl]-1,7-diaza-spiro[4.5]decan-6-one hydrochloride]
1 µM	2 µM	CCOc1ccc(F)c(-c2ccnc([C@@H]3CC[C@@]4(CCCNC4=O)N3)c2)c1 [Example 109, (2S,5R)-2-[4-(5-Ethoxy-2-fluoro-phenyl)-pyridin-2-yl]-1,7-diaza-spiro[4.5]decan-6-one hydrochloride]
15.8 µM	79.4 µM	O=C1NCC[C@]12CC[C@@H](c1cc(-c3ccc(C(F)(F)F)cc3)ccn1)N2 [Example 114, (2S,5R)-2-[4-[4-(Trifluoromethyl)phenyl]-2-pyridyl]-1,7-diazaspiro[4.4]nonan-6-one hydrochloride]
2.51 µM	31.6 µM	O=C1NCC[C@]12CC[C@H](c1cc(-c3ccc(C(F)(F)F)cc3)ccn1)N2 [Example 115, (2R,5R)-2-[4-[4-(Trifluoromethyl)phenyl]-2-pyridyl]-1,7-diazaspiro[4.4]nonan-6-one hydrochloride]
10 µM	79.4 µM	O=C1NCC[C@]12CC[C@@H](c1cc(-c3cccc(OC(F)(F)F)c3)ccn1)N2 [Example 116, (2S,5R)-2-[4-[3-(Trifluoromethoxy)phenyl]-2-pyridyl]-1,7-diazaspiro[4.4]nonan-6-one hydrochloride]
0.398 µM	7.94 µM	O=C1NCC[C@]12CC[C@H](c1cc(-c3cccc(OC(F)(F)F)c3)ccn1)N2 [Example 117, (2R,5R)-2-[4-[3-(Trifluoromethoxy)phenyl]-2-pyridyl]-1,7-diazaspiro[4.4]nonan-6-one hydrochloride]
7.94 µM	50.1 µM	O=C1NCC[C@@]12CC[C@H](c1cc(-c3cccc(OC(F)(F)F)c3)ccn1)N2 [Example 118, (2R,5S)-2-[4-[3-(Trifluoromethoxy)phenyl]-2-pyridyl]-1,7-diazaspiro[4.4]nonan-6-one hydrochloride]
3.98 µM	31.6 µM	O=C1NCC[C@@]12CC[C@@H](c1cc(-c3cccc(OC(F)(F)F)c3)ccn1)N2 [Example 119, (2S,5S)-2-[4-[3-(Trifluoromethoxy)phenyl]-2-pyridyl]-1,7-diazaspiro[4.4]nonan-6-one hydrochloride]
12.6 µM	12.6 µM	Cc1cc(-c2cccc(OC(F)(F)F)c2)cc([C@H]2CC[C@@]3(CCN(C)C3=O)N2)n1 [Example 127, (2R,5S)-7-Methyl-2-[6-methyl-4-[3-(trifluoromethoxy)phenyl]-2-pyridyl]-1,7-diazaspiro[4.4]nonan-6-one hydrochloride]
5.01 µM	20 µM	Cc1cc(-c2cccc(OC(F)(F)F)c2)cc([C@@H]2CC[C@]3(CCN(C)C3=O)N2)n1 [Example 128, (2S,5R)-7-Methyl-2-[6-methyl-4-[3-(trifluoromethoxy)phenyl]-2-pyridyl]-1,7-diazaspiro[4.4]nonan-6-one hydrochloride]

Source: US9376436B2, “2-(pyridin-2yl)-1, 7-diaza-spiro [4.4] nonane-6-one compound as voltage-gated sodium channels modulators” (CONVERGENCE PHARMACEUTICALS LIMITED, priority 2011, dated 2016)
